This passage reports Activity results from ChEMBL document CHEMBL2073858, “Cloning and characterization of a pH-sensing regulatory factor that modulates transport activity of the human H+/peptide cotransporter, PEPT1” (Biochem Biophys Res Commun, 1997).

The experiment deals with T1, Solute carrier family 15 member 1 (Homo sapiens) (UniProt P46059).
T1 sequence (whole entry): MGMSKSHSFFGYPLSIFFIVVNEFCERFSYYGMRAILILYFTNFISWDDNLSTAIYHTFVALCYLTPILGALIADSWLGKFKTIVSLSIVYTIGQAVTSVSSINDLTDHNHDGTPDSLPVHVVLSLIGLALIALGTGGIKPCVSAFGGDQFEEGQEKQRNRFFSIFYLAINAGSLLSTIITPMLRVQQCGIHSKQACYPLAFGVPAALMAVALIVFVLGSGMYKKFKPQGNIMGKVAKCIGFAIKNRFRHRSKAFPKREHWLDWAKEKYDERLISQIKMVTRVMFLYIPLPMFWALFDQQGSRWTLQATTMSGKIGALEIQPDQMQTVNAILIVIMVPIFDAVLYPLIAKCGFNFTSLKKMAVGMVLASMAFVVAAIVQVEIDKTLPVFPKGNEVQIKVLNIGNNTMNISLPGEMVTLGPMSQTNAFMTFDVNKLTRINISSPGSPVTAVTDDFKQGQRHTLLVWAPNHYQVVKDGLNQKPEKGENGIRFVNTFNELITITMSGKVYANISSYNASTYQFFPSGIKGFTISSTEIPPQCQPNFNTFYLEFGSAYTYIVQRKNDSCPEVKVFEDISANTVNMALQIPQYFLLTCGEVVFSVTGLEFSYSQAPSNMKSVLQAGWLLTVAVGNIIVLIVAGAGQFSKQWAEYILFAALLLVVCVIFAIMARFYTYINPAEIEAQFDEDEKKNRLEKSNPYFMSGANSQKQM
Briefly: TP_TRANSPORTER: uptake in Xenopus laevis oocytes. Particulars: Oocyte. The experiment is classed as functional, cell-based.

Square brackets hold non-standard residues; d marks the D form. Peptide text beside a SMILES is read from it. Sar = CNCC(=O)O

Turning to `CN(CC(=O)O)C(=O)CN` (H-Gly-[Sar]-OH), the Activity entry was “substrate [+]”.
